In patent US6479067B2, “Methods for treating ovarian cancer, poly (phosphoester) compositions, and biodegradable articles for same” (Guilford Pharmaceuticals, Inc., priority 1999, dated 2002):
Structures can show the parent of a compound that is named as a salt. Where two headings read alike, the source gives them in different places.

How the values were obtained:
[1] = tested on: melanoma cell line B16/F10
[2] = for Paclitaxel Concentration (plasma): 120 mg/kg i.p.
[3] = Subcutaneous injection: implant site macrophage counts and irritation scores; type: in vivo, male S-D rats; conditions: s.c.
[4] = 28 days, formulation injected on Day 3
[5] = 28 days, formulation injected on Day 7
[6] = 42 days, formulation injected on Day 3
[7] = 42 days, formulation injected on Day 7
[8] = 0.7 ml (polymers 89 mg/kg), 7 Day
[9] = 0.7 ml (polymers 89 mg/kg), 14 Day
[10] = 0.7 ml (polymers 89 mg/kg), 31 Day
[11] = 2.0 ml (polymers 267 mg/kg), 7 Day
[12] = 2.0 ml (polymers 267 mg/kg), 14 Day
[13] = 2.0 ml (polymers 267 mg/kg), 31 Day

## COc1cccc2c1C(=O)c1c(O)c3c(c(O)c1C2=O)C[C@@](O)(C(=O)CO)C[C@@H]3O[C@H]1C[C@H](N)[C@H](O)[C@H](C)O1 [Bolus Dox, doxorubicin hydrochloride]
[1]; [4]
  Number of Mice Survived: 8
  Tumor Volume (mm^3 ± SEM) After Tumor Injection: 1218.9 ± 304.1 mm^3
[1]; [5]
  Number of Mice Survived: 8
  Tumor Volume (mm^3 ± SEM) After Tumor Injection: 1661.2 ± 301.8 mm^3
[1]; [6]
  Number of Mice Survived: 5
  Tumor Volume (mm^3 ± SEM) After Tumor Injection: 3942.5 ± 1818 mm^3
[1]; [7]
  Number of Mice Survived: 3
  Tumor Volume (mm^3 ± SEM) After Tumor Injection: 4394.3 ± 741.3 mm^3
[1]; about 3-4 days after the injections
  Early death after injection: did not produce early death

## CC(=O)O[C@H]1C(=O)[C@@]2(C)[C@H]([C@H](OC(=O)c3ccccc3)[C@]3(O)C[C@H](OC(=O)[C@H](O)[C@@H](NC(=O)c4ccccc4)c4ccccc4)C(C)=C1C3(C)C)[C@]1(OC(C)=O)CO[C@@H]1C[C@@H]2O [Paclitaxel w/o polymer, paclitaxel]
[2]; 14 days
  Paclitaxel Concentration (plasma): Animal died
[2]; 28 days
  Paclitaxel Concentration (plasma): Animal died
[2]; comparable dose given intraperitoneally
  Tolerability: could not tolerate the dose

## CC(=O)O [Acetic Acid]
[3]; [8]
  # = Mean count (implant site macrophages): 208
  Irritation: Mild (200-400 Mild Irritation)
[3]; [9]
  # = Mean count (implant site macrophages): 166
  Irritation: Sl. (0-200 Slight Irritation)
[3]; [10]
  # = Mean count (implant site macrophages): 20
  Irritation: Sl. (0-200 Slight Irritation)
[3]; [11]
  # = Mean count (implant site macrophages): 267
  Irritation: Mild (200-400 Mild Irritation)
[3]; [12]
  # = Mean count (implant site macrophages): 334
  Irritation: Mild (200-400 Mild Irritation)
[3]; [13]
  # = Mean count (implant site macrophages): 32
  Irritation: Sl. (0-200 Slight Irritation)
